Like-named read-outs stand apart in the source and are kept apart here.
Tests used:
Streptococcus pneumoniae [1] = assay: Adjuvant broth microdilution (antibiotic MIC with SP-BIM at 50 μg/mL); type: cell-based; settings: Streptococcus pneumoniae; Streptococcus pneumonia; antibiotic alone; Table 5; read-out: MIC of antibiotic, No compound
Escherichia coli [2] = assay: microbe, parasite or virus in culture; type: cell-based; settings: antibiotic alone, Table 6, read-out: MIC of antibiotic, No compound
Klebsiella pneumoniae [3] = assay: Adjuvant broth microdilution (antibiotic MIC with SP-BIM at 50 μg/mL); type: cell-based; settings: antibiotic alone
Bacillus cereus [4] = assay: as above; type: cell-based; settings: antibiotic alone, Table 9
Enterococcus faecalis = assay: as above; type: cell-based; settings: antibiotic alone
Escherichia coli O157:H7 = type: cell-based; settings: antibiotic alone, no SP-BIM
Staphylococcus aureus = assay: Checkerboard synergy (FICI) of antibiotics with SP-BIM; type: cell-based; settings: Staphylococcus aureus, Staphylococcus aureus; for MIC: 24 h, antibiotic alone, read-out: MIC antibiotic only
Streptococcus pneumoniae [5] = assay: as above; type: cell-based; settings: for MIC: 24 h, antibiotic alone, read-out: MIC antibiotic only
Bacillus cereus [6] = assay: as above; type: cell-based; settings: for MIC: 24 h, antibiotic alone, read-out: MIC antibiotic only
Enterococcus faecium = assay: as above; type: cell-based; settings: Enterococcus faecium, Enterococcus faecium; for MIC: 24 h, antibiotic alone, read-out: MIC antibiotic only
Klebsiella pneumoniae [7] = assay: as above; type: cell-based; settings: for MIC: 24 h, antibiotic alone, read-out: MIC antibiotic only
[8] = system: clinical antibiotic resistant isolates of Enterococcus faecium; assay: Checkerboard resistance breaking by SP-BIM 13; type: cell-based; settings: for FIC compound: SP-BIM 13 with the labelled antibiotic; for Interpretation / Σ FIC: antibiotic + SP-BIM 13; for MIC of antibiotic only: antibiotic alone; for FIC antibiotic: combination with SP-BIM 13; for MIC of antibiotic in combination: with SP-BIM 13 at rescue concentration
MRSA HS 10132 = assay: Systemic lethal MRSA infection in mice (survival); type: in vivo; settings: ampicillin only, 5 days
Escherichia coli [9] = assay: Checkerboard synergy (FICI) of antibiotics with SP-BIM; parameters: MIC SP-BIM 13 only / MIC in combination: Antibiotic: unit not given beside the values; settings: for MIC: 24 h
Candida albicans = assay: as above; parameters: MIC SP-BIM 13 only / MIC in combination: Antibiotic / MIC antibiotic only: unit not given beside the values
[10] = SP-BIM 9 in combination with the labelled antibiotic
[11] = SP-BIM 13 in combination with the labelled antibiotic
[12] = antibiotic in combination with SP-BIM 9
[13] = antibiotic in combination with SP-BIM 13
[14] = Streptococcus pneumonia (title: Streptococcus pyogenes), antibiotic + SP-BIM 9
[15] = Streptococcus pneumoniae, antibiotic + SP-BIM 13
[16] = MIC of the antibiotic in combination with SP-BIM 13

## CC1(C)S[C@@H]2[C@H](NC(=O)[C@H](N)c3ccccc3)C(=O)N2[C@H]1C(=O)O [Ampicillin, ampicillin]
Streptococcus pneumoniae [1]
  MIC: 0.5 µg/mL
Escherichia coli [2]
  MIC: 63 µg/mL
Klebsiella pneumoniae [3]; Klebsiella pneumonia, no SP-BIM
  MIC of antibiotic, No Compound: >250 µg/mL
Klebsiella pneumoniae [3]; Klebsiella pneumoniae, Table 7, read-out: MIC of antibiotic, No compound
  MIC: > 250 µg/mL
Bacillus cereus [4]
  MIC of antibiotic, No Compound: >250 µg/mL
Enterococcus faecalis
  MIC of antibiotic, No Compound: 2 µg/mL
Escherichia coli O157:H7
  MIC of antibiotic, No Compound: 8 µg/mL
Staphylococcus aureus; SP-BIM 9 checkerboard
  MIC: 0.5 µg/mL
Staphylococcus aureus; SP-BIM 13 checkerboard
  MIC: 0.5 µg/mL
Staphylococcus aureus; [10]
  FIC of SP-BIM 9: 0.50
Staphylococcus aureus; [11]
  FIC of SP-BIM 13: 0.0
Staphylococcus aureus; antibiotic + SP-BIM 9
  Interpretation: Additive (Additive: FICI>0.5-1.0)
  Σ FIC: <0.90
Staphylococcus aureus; antibiotic + SP-BIM 13
  Interpretation: Additive (Additive: FICI>0.5-1.0)
  Σ FIC: 1.0
Staphylococcus aureus; [12]
  MIC in combination, Antibiotic: 0.2 µg/mL
Staphylococcus aureus; [13]
  MIC in combination, Antibiotic: 0.5 µg/mL
Staphylococcus aureus; in combination with SP-BIM 9
  FIC of antibiotic: 0.40
Staphylococcus aureus; in combination with SP-BIM 13
  FIC of antibiotic: 1.0
Streptococcus pneumoniae [5]; Streptococcus pneumonia (title: Streptococcus pyogenes), SP-BIM 9 in combination with the labelled antibiotic
  FIC of SP-BIM 9: 0.06
Streptococcus pneumoniae [5]; [14]
  Interpretation: Synergy (Synergy: FICI≤0.5)
  Σ FIC: <0.06
Streptococcus pneumoniae [5]; Streptococcus pneumonia (title: Streptococcus pyogenes), antibiotic in combination with SP-BIM 9
  MIC in combination, Antibiotic: 0.1 µg/mL
Streptococcus pneumoniae [5]; Streptococcus pneumonia (title: Streptococcus pyogenes), in combination with SP-BIM 9
  FIC of antibiotic: 0.00
Streptococcus pneumoniae [5]; Streptococcus pneumoniae, Streptococcus pneumonia (title: Streptococcus pyogenes), SP-BIM 9 checkerboard
  MIC: > 250 µg/mL
Streptococcus pneumoniae [5]; Streptococcus pneumoniae, Streptococcus pneumoniae, SP-BIM 13 checkerboard
  MIC: 250 µg/mL
Streptococcus pneumoniae [5]; Streptococcus pneumoniae, SP-BIM 13 in combination with the labelled antibiotic
  FIC of SP-BIM 13: 0.3
Streptococcus pneumoniae [5]; [15]
  Interpretation: Synergy (Synergy: FICI≤0.5)
  Σ FIC: <0.3
Streptococcus pneumoniae [5]; Streptococcus pneumoniae, antibiotic in combination with SP-BIM 13
  MIC in combination, Antibiotic: 2 µg/mL
Streptococcus pneumoniae [5]; Streptococcus pneumoniae, in combination with SP-BIM 13
  FIC of antibiotic: 0.0
Bacillus cereus [6]; SP-BIM 9 checkerboard
  MIC: 8 µg/mL
Bacillus cereus [6]; SP-BIM 13 checkerboard
  MIC: 8 µg/mL
Bacillus cereus [6]; [11]
  FIC of SP-BIM 13: 0.3
Bacillus cereus [6]; antibiotic + SP-BIM 13
  Interpretation: Synergy (Synergy: FICI≤0.5)
  Σ FIC: 0.3
Bacillus cereus [6]; [13]
  MIC in combination, Antibiotic: 0.5 µg/mL
Bacillus cereus [6]; in combination with SP-BIM 13
  FIC of antibiotic: 0.06
Enterococcus faecium; SP-BIM 9 checkerboard
  MIC: 250 µg/mL
Enterococcus faecium; SP-BIM 13 checkerboard
  MIC: 250 µg/mL
Enterococcus faecium; SP-BIM 9 concentration in combination with the labelled antibiotic
  MIC in combination, SP-BIM 9: 64 µg/mL
Enterococcus faecium; [10]
  FIC of SP-BIM 9: 0.3
Enterococcus faecium; [11]
  FIC of SP-BIM 13: 0.5
Enterococcus faecium; antibiotic + SP-BIM 9
  Interpretation: Synergy (Synergy: FICI≤0.5)
  Σ FIC: ≤0.3
Enterococcus faecium; antibiotic + SP-BIM 13
  Interpretation: Additive (Additive: FICI>0.5-1.0)
  Σ FIC: <0.6
Enterococcus faecium; [12]
  MIC in combination, Antibiotic: 0.1 µg/mL
Enterococcus faecium; [13]
  MIC in combination, Antibiotic: 16 µg/mL
Enterococcus faecium; in combination with SP-BIM 9
  FIC of antibiotic: 0.0
Enterococcus faecium; in combination with SP-BIM 13
  FIC of antibiotic: 0.1
Klebsiella pneumoniae [7]; SP-BIM 9 checkerboard
  MIC: 250 µg/mL
Klebsiella pneumoniae [7]; SP-BIM 13 checkerboard
  MIC: 250 µg/mL
Klebsiella pneumoniae [7]; [10]
  FIC of SP-BIM 9: 1
Klebsiella pneumoniae [7]; [11]
  FIC of SP-BIM 13: 0.3
Klebsiella pneumoniae [7]; antibiotic + SP-BIM 9
  Interpretation: Synergy (Synergy: FICI≤0.5)
  Σ FIC: <1.0
Klebsiella pneumoniae [7]; antibiotic + SP-BIM 13
  Interpretation: Indifferent (Indifferent: FICI>1.0-4.0)
  Σ FIC: <1.3
Klebsiella pneumoniae [7]; [12]
  MIC in combination, Antibiotic: 2 µg/mL
Klebsiella pneumoniae [7]; [13]
  MIC in combination, Antibiotic: 250 µg/mL
Klebsiella pneumoniae [7]; in combination with SP-BIM 9
  FIC of antibiotic: 0.008
Klebsiella pneumoniae [7]; in combination with SP-BIM 13
  FIC of antibiotic: 1.0
[8]; E. faecium strain 22870
  FIC compound: 0.128
  Interpretation: Synergy (Synergy: FICI≤0.5)
  Σ FIC: <0.14
  MIC of antibiotic only: 250 µg/mL
  FIC antibiotic: 0.008
  MIC of antibiotic in combination: 2 µg/mL
[8]; E. faecium strain RC63
  FIC compound: 0252
  Interpretation: Synergy (Synergy: FICI≤0.5)
  Σ FIC: <0.26
  MIC of antibiotic only: 250 µg/mL
  FIC antibiotic: 0.008
  MIC of antibiotic in combination: 2 µg/mL
MRSA HS 10132
  mortality: 100%
Escherichia coli [9]; read-out: MIC antibiotic only, Escherichia coli, antibiotic alone
  MIC: > 250 µg/mL
Escherichia coli [9]; read-out: MIC antibiotic only, Escherichia coli, antibiotic alone, SP-BIM 9 checkerboard
  MIC: 250 µg/mL
Escherichia coli [9]; [16]
  MIC in combination: Antibiotic: 4
Escherichia coli [9]; [10]
  FIC of SP-BIM 9: 0.064
Escherichia coli [9]; [11]
  FIC of SP-BIM 13: 0.5
Escherichia coli [9]; antibiotic + SP-BIM 9
  Interpretation: Synergy (Synergy: FICI≤0.5)
  Σ FIC: <0.1
Escherichia coli [9]; antibiotic + SP-BIM 13
  Interpretation: Synergy (Synergy: FICI≤0.5)
  Σ FIC: <0.5
Escherichia coli [9]; [12]
  MIC in combination, Antibiotic: 4 µg/mL
Escherichia coli [9]; combination with SP-BIM 13
  FIC of antibiotic: 0.0
Escherichia coli [9]; in combination with SP-BIM 9
  FIC of antibiotic: 0.016
Candida albicans; 24 h, read-out: MIC antibiotic only
  MIC: > 250 µg/mL
Candida albicans; [16]
  MIC in combination: Antibiotic: 0.5
Candida albicans; [11]
  FIC of SP-BIM 13: 0.5
Candida albicans; antibiotic + SP-BIM 13
  Interpretation: Synergy (Synergy: FICI≤0.5)
  Σ FIC: <0.5
Candida albicans; combination with SP-BIM 13
  FIC of antibiotic: 0.0

Source: US12285407B2, “Bis-indolylmethane derivatives and uses thereof” (The University of The West Indies, priority 2018, dated 2025)
